Test results from the NIST ThermoML archive (doi:10.1021/acs.jced.6b00158).
Numbers after ± are expanded uncertainties.

Assay: xn = mol fraction of the nth substance listed
Settings: 100 kPa, Liquid; for viscosity: Falling or rolling sphere viscometry; for mass density: Vibrating tube method

NC1CCCCC1 [cyclohexylamine] + CC(C)CO
Settings | mass density, 293.15 K [kg/m3] | mass density, 298.15 K [kg/m3] | mass density, 303.15 K [kg/m3] | mass density, 308.15 K [kg/m3] | mass density, 313.15 K [kg/m3] | viscosity, 293.15 K [mPa·s] | viscosity, 298.15 K [mPa·s] | viscosity, 303.15 K [mPa·s] | viscosity, 308.15 K [mPa·s] | viscosity, 313.15 K [mPa·s]
x2 = 0 | 866.85 ± 2 | 862.31 ± 2 | 857.79 ± 2 | 853.24 ± 2 | 848.71 ± 2 | 2.134 ± 0.063 | 1.944 ± 0.062 | 1.786 ± 0.062 | 1.572 ± 0.062 | 1.417 ± 0.061
x2 = 0.06096 | 865.7 ± 2 | 861.18 ± 2 | 856.68 ± 2 | 852.18 ± 2 | 847.71 ± 2 | 2.408 ± 0.064 | 2.146 ± 0.063 | 1.948 ± 0.062 | 1.697 ± 0.062 | 1.515 ± 0.061
x2 = 0.1205 | 865.02 ± 2 | 860.59 ± 2 | 856.11 ± 2 | 851.64 ± 2 | 847.15 ± 2 | 2.575 ± 0.064 | 2.279 ± 0.063 | 2.055 ± 0.063 | 1.791 ± 0.062 | 1.578 ± 0.062
x2 = 0.2357 | 861.79 ± 2 | 857.37 ± 2 | 852.93 ± 2 | 848.49 ± 2 | 844.09 ± 2 | 2.838 ± 0.065 | 2.474 ± 0.064 | 2.204 ± 0.063 | 1.917 ± 0.062 | 1.678 ± 0.062
x2 = 0.3458 | 856.98 ± 2 | 852.62 ± 2 | 848.23 ± 2 | 843.79 ± 2 | 839.39 ± 2 | 3.048 ± 0.066 | 2.644 ± 0.064 | 2.334 ± 0.063 | 2.022 ± 0.062 | 1.761 ± 0.062
x2 = 0.4513 | 850.89 ± 2 | 846.55 ± 2 | 842.2 ± 2 | 837.83 ± 2 | 833.46 ± 2 | 3.246 ± 0.066 | 2.805 ± 0.065 | 2.454 ± 0.064 | 2.123 ± 0.063 | 1.839 ± 0.062
x2 = 0.5523 | 847.01 ± 2 | 842.76 ± 2 | 838.46 ± 2 | 834.13 ± 2 | 829.78 ± 2 | 3.403 ± 0.067 | 2.937 ± 0.065 | 2.558 ± 0.064 | 2.212 ± 0.063 | 1.902 ± 0.062
x2 = 0.6492 | 839.36 ± 2 | 835.13 ± 2 | 830.89 ± 2 | 826.62 ± 2 | 822.37 ± 2 | 3.522 ± 0.067 | 3.037 ± 0.066 | 2.626 ± 0.064 | 2.275 ± 0.063 | 1.96 ± 0.062
x2 = 0.7421 | 830.79 ± 2 | 826.7 ± 2 | 822.55 ± 2 | 818.36 ± 2 | 814.15 ± 2 | 3.534 ± 0.067 | 3.046 ± 0.066 | 2.629 ± 0.064 | 2.303 ± 0.063 | 1.998 ± 0.062
x2 = 0.8315 | 820.81 ± 2 | 816.78 ± 2 | 812.73 ± 2 | 808.63 ± 2 | 804.54 ± 2 | 3.606 ± 0.068 | 3.088 ± 0.066 | 2.646 ± 0.064 | 2.309 ± 0.063 | 1.998 ± 0.062
x2 = 0.9174 | 814.12 ± 2 | 810.19 ± 2 | 806.19 ± 2 | 802.09 ± 2 | 798 ± 2 | 3.668 ± 0.068 | 3.13 ± 0.066 | 2.676 ± 0.064 | 2.345 ± 0.063 | 2.015 ± 0.062
